According to ChEMBL document CHEMBL1127407, “Unambiguous total synthesis of the enantiomers of myo-inositol 1,3,4-trisphosphate: 1L-myo-inositol 1,3,4-trisphosphate mobilizes intracellular Ca2+ in Limulus photoreceptors” (J Med Chem, 1994):

Experiments:
[1] = Peak depolarizations produced by injections of 100 micro M Ins p3 isomers in nine cells; format: cell-based
[2] = Peak depolarizations produced by injections of 100 micro M Ins p3 isomers in six cells; format: cell-based

O=P(O)(O)OC1C(O)C(O)C(OP(=O)(O)O)C(OP(=O)(O)O)C1O (stereo in doubt; form 1) [INOSITOL (1,4,5) (PHOSPHATE)3]
Depolarisation [1]: 24 mV

O=P(O)(O)OC1C(O)C(O)C(OP(=O)(O)O)C(OP(=O)(O)O)C1O (stereo in doubt; form 2) [INOSITOL (1,4,5) (PHOSPHATE)3]
Depolarisation [2]: 32.5 mV

O=P(O)(O)OC1C(O)C(O)C(OP(=O)(O)O)C(OP(=O)(O)O)C1O (stereo in doubt; form 3) [INOSITOL (1,4,5) (PHOSPHATE)3]
Depolarisation [2]: 3.4 mV | Depolarisation [1]: 5.7 mV
